Results: patent US8114843B2, “Photoreactive regulator of protein function and methods of use thereof” (The Regents of the University of California, priority 2005, dated 2012)
≈ marks a conversion by molar mass, not a printed value. Entries after “also recorded” stand apart in the source; their conditions may differ. Each block holds one molecule with its values, some of them ahead of it.

Tests used:
iGluR6 = target: T1, iGluR6 (Rattus norvegicus, UniProt P42260); assay: Calcium imaging of iGluR6 activity in HEK293 cells; assay type: cell-based
T1 construct: expressed in transfected cells; host or cells: HEK293
T1 sequence (P42260 32-908): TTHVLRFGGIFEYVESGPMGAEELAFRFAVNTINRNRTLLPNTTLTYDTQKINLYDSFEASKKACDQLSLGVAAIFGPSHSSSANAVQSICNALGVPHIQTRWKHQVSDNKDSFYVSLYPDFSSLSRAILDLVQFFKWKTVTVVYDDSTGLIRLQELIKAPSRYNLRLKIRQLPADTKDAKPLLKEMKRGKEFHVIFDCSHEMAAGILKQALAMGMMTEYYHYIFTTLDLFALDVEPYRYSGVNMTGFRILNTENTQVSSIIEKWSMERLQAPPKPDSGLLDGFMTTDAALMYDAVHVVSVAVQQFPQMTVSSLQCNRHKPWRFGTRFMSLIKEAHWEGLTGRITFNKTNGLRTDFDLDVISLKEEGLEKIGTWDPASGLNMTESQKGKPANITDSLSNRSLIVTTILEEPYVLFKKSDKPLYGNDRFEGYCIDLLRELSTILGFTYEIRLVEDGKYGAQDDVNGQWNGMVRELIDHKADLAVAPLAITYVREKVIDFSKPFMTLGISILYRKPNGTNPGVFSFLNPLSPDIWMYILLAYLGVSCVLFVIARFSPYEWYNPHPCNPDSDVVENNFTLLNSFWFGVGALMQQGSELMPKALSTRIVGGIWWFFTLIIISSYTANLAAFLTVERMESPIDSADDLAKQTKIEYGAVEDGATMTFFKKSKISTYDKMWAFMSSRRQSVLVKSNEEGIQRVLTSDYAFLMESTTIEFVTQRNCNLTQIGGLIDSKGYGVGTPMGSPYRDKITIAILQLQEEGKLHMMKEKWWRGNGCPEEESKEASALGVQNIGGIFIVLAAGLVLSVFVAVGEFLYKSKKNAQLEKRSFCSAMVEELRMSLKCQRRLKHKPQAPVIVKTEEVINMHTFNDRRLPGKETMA

hippocampal neurons = assay: Live-Dead viability/cytotoxicity assay after MAG exposure; settings: 12 hours continuous exposure, several concentrations; listed as MAG
Solubility = assay type: physicochemical; settings: for solubility: read-out: solubility limit
[1] = Photostationary state determination by NMR; assay type: physicochemical; settings: MAG-1 conjugated to β-mercaptoethanol, D2O
Protocol: Cis-trans photoisomerization of MAG-1 conjugated with β-mercaptoethanol (see Supplementary Methods online) was studied by ^1H NMR, with in situ irradiation of sample using a Polychrom V system monochromator (Till Photonics) containing a 150 W Xenon short arc lamp with an output range of 320-680 nm (29). The half-power bandwidth was 14 nm. A 500 μl aliquot of a 100 μM sample in D2O was prepared in a screw-capped 528-TR-7 NMR tube (Wilmad). A FT-600-UMT fiber optic cable (NA 0.39) (Thorlabs) was coupled at one end to the monochromator using a custom fitting and the other end inserted into the NMR tube a few millimeters above the solution. Each sample was irradiated at the desired wavelength for 30 minutes to reach the photostationary state and 480 scans were required to obtain reasonable signal-to-noise ratios. The output from the fiber optic cable between 340-480 nm ranged from 0.3-9.0 μW/cm^2. Data were processed by isolating aromatic cis-trans ^1H signals and summing their integrals to 1.0. All data were obtained in triplicate and averaged. This analysis will be detailed further in a future paper by Banghart, M. R. et al. (in preparation).

wild-type Shaker (E422) = target: T2, wild-type Shaker (E422) (Drosophila melanogaster, UniProt P08510, DEL6-46); assay: PAL photoswitching, whole-cell patch clamp in HEK293 cells; assay type: cell-based
T2 construct: expressed in transfected cells; host or cells: HEK293
T2 sequence (P08510 other isoform, or with tags, fused parts or gaps DEL6-46): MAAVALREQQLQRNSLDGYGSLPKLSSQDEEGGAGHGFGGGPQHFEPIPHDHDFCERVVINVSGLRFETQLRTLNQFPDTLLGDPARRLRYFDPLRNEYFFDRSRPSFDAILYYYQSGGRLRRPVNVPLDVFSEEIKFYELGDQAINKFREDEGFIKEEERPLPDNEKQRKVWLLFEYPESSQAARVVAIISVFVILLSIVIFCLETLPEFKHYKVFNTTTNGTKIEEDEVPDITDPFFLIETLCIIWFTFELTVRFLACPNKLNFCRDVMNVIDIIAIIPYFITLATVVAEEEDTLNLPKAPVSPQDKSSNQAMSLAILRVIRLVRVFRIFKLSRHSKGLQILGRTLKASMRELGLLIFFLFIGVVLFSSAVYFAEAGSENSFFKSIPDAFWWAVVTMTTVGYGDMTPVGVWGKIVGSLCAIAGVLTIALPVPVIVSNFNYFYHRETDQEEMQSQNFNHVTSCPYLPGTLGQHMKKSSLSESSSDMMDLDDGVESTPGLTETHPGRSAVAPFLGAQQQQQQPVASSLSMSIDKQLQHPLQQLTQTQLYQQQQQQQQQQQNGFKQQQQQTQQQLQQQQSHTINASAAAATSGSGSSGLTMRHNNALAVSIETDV
Protocol: Cell culture and transfection. HEK293 cells were grown in DMEM containing 5% fetal bovine serum, at 37° C., 7% CO2. For electrophysiology, cells were plated at 12×10^5 cells/cm^2 on poly-L-lysine coated coverslips and transfected using the calcium phosphate method. Recordings were performed 24-36 hours after transfection.
(§1) PAL attachment. HEK293 and hippocampal cells were rinsed in extracellular solution containing in mM: 138 NaCl, 1.5 KCl, 1.2 MgCl2, 2.5 CaCl2, 5 HEPES, 10 glucose and incubated at 37° C. in the dark with 200-250 μM PAL for 15 minutes. For slices, AAQ was diluted to 200 μM in aCSF and treatment was performed in the dark at room temperature for 10 minutes.
(§2) Electrophysiological recording. Recordings from HEK293 and hippocampal neurons were made in the whole-cell patch clamp configuration using a PC-501A amplifier (Warner Instruments). Pulse protocols and measurements were carried out with pCLAMP and a Digidata 1322 interface (Axon Instruments). For voltage-clamp experiment, cells were held at −70 mV. Data was recorded at 20 kHz and filtered at 2 kHz. Recording pipettes with 2.5-4 MΩ resistance were filled with intracellular solution containing in mM: 10 NaCl, 135 K-gluconate, 10 HEPES, 2 MgCl2, 2 MgATP, 1 EGTA, pH 7.4.
Illumination was provided using a xenon lamp (Sutter Instruments) with narrow band pass filters (380 BP10 for UV and 500 BP5 for visible light respectively). Excitation filters were changed using a lambda 10-2 filter changer (Sutter Instruments) controlled via pCLAMP software.
Percent photoswitching was defined as the difference between current in UV and visible light divided by current in UV. All data shown in bar graphs are averages±standard error of the mean.

[2] = system: cultured hippocampal neurons; assay: Live/Dead assay after PAL treatment; assay type: cell-based; settings: 200 μM
Excerpt: Live/Dead assay. After PAL treatment, hippocampal neurons were processed for the live dead assay (Molecular Probes) according to the manufacturer's instructions. Cells were counted in 4-8 fields for each treatment condition.

Purkinje neurons = assay: Loose-patch extracellular recording in cerebellar slices; assay type: cell-based, rat; settings: gabazine added
Protocol: Brain Slice Preparation. Parasagittal cerebellar slices were prepared using standard techniques approved by the UCLA Animal Care Committee. […] PAL attachment. […] For cerebellar slices, neuronal cell bodies were visualized using an upright microscope with a 40× water immersion lens and equipped with an infrared-DIC enhancement. Loose-patch extracellular recordings were performed using an Axopatch 200B amplifier (Axon Instruments). Electrophysiological recordings were filtered at 1 KHz and digitized at 2-4 KHz. Pipettes were typically 1.4-2.0 MΩ for recordings from PNs and 3.0-3.5 MΩ for interneurons and filled with aCSF. […] All recordings were performed at room temperature. […] Excitation filters were changed using a lambda 10-2 filter changer (Sutter Instruments) controlled via pCLAMP software.

[3] = system: voltage-gated outward current (endogenous K+ channels) in cultured hippocampal neurons; assay: Photocontrol of K+ current in cultured hippocampal neurons; assay type: cell-based, rat; settings: 200 μM, 15 min in the dark
Protocol: Hippocampal neurons were prepared from neonatal Sprague-Dawley rats according to standard procedures (Goslin) and grown on poly-L-lysine coated coverslips in MEM supplemented with 5% fetal bovine serum, B27 (Invitrogen), glutamine and serum extender (BD Biosciences). Animal care and experimental protocols were approved by the UC Berkeley Animal Care and Use Committee. Recordings were performed 9-16 days after plating. The Shaker construct also contains an N-terminal deletion (Δ6-46) to minimize fast inactivation.
as §1
as §2, with “Recording pipettes with 2.5-4 MΩ resistance were filled with intracellular solution containing in mM: 10 NaCl, 135 K-gluconate, 10 HEPES, 2 MgCl2, 2 MgATP, 1 EGTA, pH 7.4.” left out

[4] = system: hippocampal pyramidal neurons transfected with the multiply-mutated Shaker channel; assay: Current clamp recordings from cultured hippocampal neurons treated with MAL-AZO-QA; assay type: cell-based, rat
Protocol: Primary dissociated hippocampal cultures were prepared from E18-19 Sprague-Dewey rat embryos and grown on glass cover slips in serum-containing media and incubated in 7% CO2 in air at 37° C. Cells were co-transfected with GFP along with the modified Shaker channel described above with additional L366A and V454L mutations. Transfections with Lipofectamine 2000™ were performed at 12-14 DIV. About 10% of the cultured neurons appeared GFP-positive at 2-3 days after transfection. Coverslips containing the neurons were treated at 37° C. for 15 min with 300 μM MAL-AZO-QA in an extracellular recording solution containing (in mM) 135 NaCl, 5 KCl, 1.2 MgCl2, 5 HEPES, 2.5 CaCl2, and 10 glucose at pH 7.4. Patch pipettes (7-10 MΩ) were filled with 10 NaCl, 135 K-gluconate, 10 HEPES, 2 MgCl2, 2 Mg-ATP, and 1 EGTA at pH 7.4. After washout of MAL-AZO-QA with extracellular solution, membrane potential was recorded at room temperature under whole-cell current clamp with an AXOPATCH 200A amplifier (Axon Instruments) and filtered at 10 kHz. Initial recordings were made at resting potential to evaluate the effects of light on spontaneous activity. In experiments where we wanted to quantify the effect of light on firing (e.g. FIG. 4b), cultures were treated with 6-cyano-7-nitroquinoxaline-2,3-dione (CNQX) (1 μM) and bicuculline (10 μM) to silence synaptic activity. Baseline currents were adjusted to set the membrane potential at −50 mV before depolarizing current steps ranging from 0.01-0.03 nA were applied to evoke action potentials. Cells were irradiated with a Lambda-LS illuminator containing a 125 watt xenon arc lamp (Sutter Instruments Company), equipped with narrow bandpass (+/−10 nm) filters through a Fluor 20×, 0.5 NA objective lens (Nikon). Variability among data is expressed as mean+/−SEM, unless noted otherwise.

[5] = target: Shaker H4 (Δ6-46, E422C, T449V) (Drosophila melanogaster, UniProt P08510, DEL6-46/E422C/T449V); assay: Patch recordings of MAL-AZO-QA-modified Shaker channels in Xenopus oocytes; assay type: cell-based
Chain of Shaker H4 (Δ6-46, E422C, T449V) (P08510 other isoform, or with tags, fused parts or gaps DEL6-46/E422C/T449V): as the sequence (P08510 other isoform, or with tags, fused parts or gaps DEL6-46) above, with E381C, T408V counted along it
Protocol: Xenopus oocytes were injected with […] of mRNA encoding Shaker H4, with the following mutations: Δ6-46, E422C, T449V. […] Devitillenized oocytes were recorded from 2-10 days post-injection using standard patch-clamp methods. For outside-out patches, glass patch pipettes (2-4 MΩ) were filled with a solution containing (in mM) 100 KCl, 10 HEPES, 0.1 CaCl2, 0.5 MgCl2, and 10 EGTA, while the bath contained 10 KCl, 90 NaCl, 10 HEPES, 0.1 CaCl2, 0.5 MgCl2, and 10 EGTA. For inside-out patches, patch pipettes and bath both contained 100 KCl, 10 HEPES, 0.1 CaCl2, 0.5 MgCl2, and 10 EGTA. The pH of all solutions was 7.1. Solid MAL-AZO-QA was dissolved as a concentrated stock solution in DMSO and stored at −20° C. until the day of use. Stocks were diluted into oocyte bath solution to final concentrations of 10 μM or 100 μM. […] Pulse protocols and measurements were performed with pCLAMP software, a DigiData 1200 series interface, and a PC-505 amplifier (Warner Instruments). Samples were taken at 10 kHz and the data was filtered at 1 kHz. Patches were held at −90 mV, pulsed to −100 mV for 60 msec to monitor leak, and pulsed to −20 mV for 30-100 msec at 1 Hz to elicit Shaker currents. The peak of the Shaker currents was measured to minimize the contribution of slow inactivation. Patches with a leak conductance>100 pS were not included in analysis.
Discrete wavelengths of light (+/−10 nm) were focused on patches through a quartz coverslip with a Fluor 20×, 0.5 NA objective lens (Nikon). Output intensity was measured for wavelengths between 300 and 600 nm. The measured output intensities for wavelengths between 340-600 nm ranged from 0.324e-8 to 6.23e-8 W/cm^2. Differences in light intensities at different wavelengths were taken into account when determining action spectra for channel block and unblock.

SMILES: N[C@@H](CC(CCCC(=O)NCC(=O)Nc1ccc(/N=N/c2ccc(NC(=O)CN3C(=O)C=CC3=O)cc2)cc1)C(=O)O)C(=O)O (stereo in doubt) [MAG-1]
light sensitivity conferred (Ca2+ increase at 380 nm, decrease at 500 nm) (iGluR6; wildtype iGluR6 (WT)): not on wildtype iGluR6
cell death compared with controls (hippocampal neurons): no difference; also recorded: no increase in cell death
solubility (Solubility): 0.2 mM (≈ 124 µg/mL)
fraction in the cis-state ([1]; 380 nm): 93.0±0.6%
fraction in the trans-state ([1]; 500 nm): 83.0±0.6%

SMILES: CC[N+](CC)(CC)CC(=O)Nc1ccc(/N=N/c2ccc(NC(=O)CCl)cc2)cc1 [CAQ]
light-sensitivity conferred on channel (wild-type Shaker (E422)): conferred light-sensitivity
water solubility compared with AAQ (Solubility): less water-soluble
death of neurons ([2]; 15 min): ~10%
loss of neurons ([2]; 60 min): ~15%

solubility (Solubility): 4 mM (≈ 1010 µg/mL)
SMILES: O=c1[nH]c2cc([N+](=O)[O-])c([N+](=O)[O-])cc2[nH]c1=O [DNQX, 6,7-dinitroquinoxaline-2,3-[1H,4H]-dione, reference compound]

SMILES: COc1ccc(-c2ccc(=N)n(CCCC(=O)O)n2)cc1 [Gabazine, reference compound]
basal firing rate of Purkinje cells (Purkinje neurons): ~15 Hz

SMILES: CC[N+](CC)(CC)CC(=O)Nc1ccc(/N=N/c2ccc(NC(=O)CN3C(=O)C=CC3=O)cc2)cc1 [MAL-AZO-QA]
percent of the outward current that could be photoswitched [3]: 2±5%
time to silence spontaneous action potentials ([4]; 390 nm light): ≤ 3 s
decrease in number of action potentials elicited by a depolarizing step ([4]; 390 nm light, n=4): 79%
onset of restored activity in the dark after silencing ([4]; dark): > 30 s
effect of light on treated neurons expressing GFP without the Shaker channels ([4]; n=4): no effect
wavelength most effective in unblocking channels ([5]; action spectrum, inside-out patches): 380 nm
return of unblocked channels to the blocked state in the dark ([5]; dark): > 5 min
τ1 of current block in dark (biexponential) ([5]; dark): 0.49 min
τ2 of current block in dark (biexponential) ([5]; dark): 4.79 min
current unblocked by ultraviolet light ([5]; inside-out patch, oocytes treated with 100 μM for 30 min): ≤ 1 nA
reduction of voltage-gated Shaker current ([5]; outside-out patch, 10 μM, over 4 min): > 60%
time for unblock and re-block to nearly reach steady-state ([5]; standard epifluorescence illumination): ≤ 5 s

SMILES: Cl.N[C@@H](C[C@@H](CCCC(=O)NCC(=O)Nc1ccccc1)C(=O)O)C(=O)O [tether model 3]
maximal response compared with saturating glutamate (iGluR6): similar
EC50 (iGluR6; FURA-2-AM calcium imaging, HEK293, read-out: EC50 for activating iGluR6): 180 µM
solubility (Solubility): 10 mM
